These results are taken from publication PMC9397467 (Virulence, 2022).

Each structure is given as a SMILES string.

The assay concerns the target T1, Sortase A (SrtA) (Staphylococcus aureus, UniProt Q2FV99).
T1 sequence (Q2FV99 60-206 limits assumed): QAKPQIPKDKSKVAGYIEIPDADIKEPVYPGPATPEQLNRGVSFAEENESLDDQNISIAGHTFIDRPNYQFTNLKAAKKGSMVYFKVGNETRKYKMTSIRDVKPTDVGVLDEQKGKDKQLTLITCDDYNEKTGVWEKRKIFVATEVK
Briefly: fluorescence quenching. In kind it is binding.

`Oc1cc(O)c2cc(O)c(-c3ccc(O)c(O)c3)[o+]c2c1` [cyanidin chloride] had a Kd of 13.8 µM. In other words, the double-digit micromolar range.

In general, Kd refers to the concentration at which binding is half-saturated. A low value points to a tighter complex.
